Measurements reported in patent US6953786B2, “Compositions comprising plant-derived polyphenolic compounds and inhibitors of reactive oxygen species and methods of using thereof” (The Regents of the University of California, priority 2002, dated 2005).
Residues, ends and D or L forms follow the SMILES beside them. *: point of attachment. Cbz = O=C(OCc1ccccc1)*; CH2F = FC*

Tests used:
[1] = test system: Mia PACA-2 cells; assay: Intracellular ROS (H2O2) by flow cytometry of DCF-labeled cells; format: cell-based, human; settings: Mia PACA-2, 72 hours; DPI 15 μM
Procedure: To determine the effect of serum in cancer cells, the following assay was conducted. Mia PACA-2 pancreatic cancer cells were cultured for 72 hours in the absence and presence of serum (15% FBS) or 100 ng/ml insulin growth factor-1 (IGF-1). Dichloroflyorescein diocetate (DCF-DA) was used to label the cells. Intracellular H2O2 was measured by flow cytometry of DCF-labeled cells. Intracellular ROS was measured using oxidation-sensitive cell-permeable fluorescent probe, dichlorofluorescein diacetate (DCF-DA) to measure H2O2. See Royall J A, and Ischiropoulos H. (1993) Arch. Biochem. Biophys. 302:348-355. To measure ROS, cells were collected after incubation, washed with PBS, and incubated for 15 minutes with […] DCF-DA. Samples were analyzed by flow cytometry. The amount of DCF-DA fluorescence correlated with the amount of ROS in the cells To determine the effects of serum, IGF-1, polyphenols and inhibitors of ROS on ROS production in cancer cells, the following assay was conducted. Mia PACA-2 cells were cultured for 72 hours in the presence of serum or IGF-1 with or without antioxidants, intracellular superoxide scavenger tiron (10 mM) or NADPH oxidase inhibitor, diphenylene iodonium (DPI, 15 μM) and trans-resveratrol (100 μM), genistein (100 μM), or a combination of polyphenolic compounds and antioxidants. Intracellular H2O2 was measured by flow cytometry of DCF-labeled cells. Mia PACA-2 cells and BSp73AS cells were cultured in Dulbecco's Modified Eagle's Medium supplemented with 10% heat inactivated FBS, penicillin G (100 U/ml) and streptomycin ([…]) in a humidified atmosphere comprising 5% (v/v) CO2. When the cells were 90% confluent they were detached, washed with alternating centrifugation and resuspension, plated and incubated in the same media with or without FBS or IGF-1 and with or without a given polyphenolic compound and with or without a given ROS inhibitor.

[2] = test system: Mia PACA-2 cells; assay: Oligonucleosomal DNA fragmentation by cell death ELISA; format: cell-based, human; settings: Mia PACA-2, 72 hours, with serum
Procedure: Mia PACA-2 cells were cultured for 72 hours in the presence of serum with or without 15 μM DPI, 10 mM Tiron, 100 μM genistein, 100 μM or 50 μM trans-resveratrol, or a combination thereof. Oligonucleosomal DNA fragmentation was measured in cell lysates by cell death ELISA.
Annexin staining was conducted as described above. Cells were collected, washed with PBS, and centrifuged for 10 min at 200×g. DNA fragmentation was determined using Cell Death Detection ELISA Plus kit (Roche Molecular Biochemicals).
To determine the role of caspases in the effects of combinations of agents on apoptosis, the effects of caspase-3 activity (DEVDase activity) as well as the effect of the broad spectrum caspase inhibitor, Z-VAD, on apoptosis was measured. Specifically, Mia PACA-2 cells were cultured for 72 hours in the presence of serum with or without 100 μM Z-VAD, 15 μM DPI, 100 μM trans-resveratrol, 100 μM genistein, a combination of trans-resveratrol and DPI, and a combination of genistein and DPI. DEVDase activity was measured in whole cell lysates with a fluorimetric assay. DNA fragmentation was measured in cell lysates by cell death ELISA.
In particular, Mia PACA-2 cells were cultured for 72 hours in the presence of serum with or without 50 μM trans-resveratrol (RS), 15 μM DPI, a combination of DPI and trans-resveratrol (RS+DPI), 10 μM MG-132 alone and in combination with RS, DPI, and RS+DPI. Internucleosomal DNA fragmentation was measured in cell lysates by cell death ELISA.

[3] = test system: Mia PACA-2 cells; assay: Mitochondrial membrane potential, DiOC6(3) retention; format: cell-based, human; settings: Mia PACA-2, 72 hours, in the presence of serum (FIG. 11)
Procedure: In order to determine the effects polyphenolic compounds have on mitochondrial membrane potential, the retention of the dye 3,3′-dihexyloxacarbocyanine (DiOC6(3)) was measured as described by Pastorino J G, et al. (1998) J Biol Chem 273:7770-7775, which is herein incorporated by reference. BSp73AS cells were cultured for 6 hours in the absence (control) or presence of 0, 12, 24, 50, and 100 μM quercetin and trans-resveratrol. The cells were loaded with 1 μM DiOC6(3) during the last 30 minutes of treatment with a polyphenolic compound (or vehicle). The cells were then collected and pelleted by centrifugation. The supernatant was removed and the pellet was washed twice with PBS by alternate centrifugation and resuspension. The pellet was then lysed by addition of 1 ml of H2O and homogenized. The concentration of DiOC6(3) was read on a Perkin-Elmer LS-5 fluorescence spectrometer at 488 nm excitation and 500 nm emission. An aliquot of the cells was used for determining the DiOC6(3) fluorescence that was retained by the cells.
Mia PACA-2 cells were cultured for 72 hours in the presence of serum and trans-resveratrol or genistein in the presence or absence of DPI or Tiron. Mitochondrial membrane potential was measured as described above.

[4] = test system: NF-κB; assay: NF-κB DNA binding activity (EMSA / gel shift); format: cell-based, human; settings: Mia PACA-2, 72 hours, with serum; DPI 15 μM, trans-resveratrol 100 μM, genistein 100 μM, LY294002 50 μM
Procedure: In order to determine the role of activated NF-κB in the regulation of apoptosis caused by the polyphenolic compound, the following assay was conducted. BSp73AS cells were cultured for 6 hours and Mia PACA-2 cells were cultured in the absence of serum or growth factors for 24 hours in the absence (controls) or presence of rutin, quercetin, trans-resveratrol, or genistein, each at 100 μM and 20 μM proteosome inhibitor MG-132. Nuclear proteins were isolated and analyzed for NF-κB DNA binding activity with electrophoretic mobility shift assay (EMSA).
Specifically, aliquots of nuclear extracts with equal amount of protein, about 2 to about 10 μg, were mixed in 20 μl reactions with a buffer comprising 10 mM HEPES (pH 7.6), 50 mM KCl, 0.1 mM EDTA, 1 mM DTT, 10% (vol/vol) glycerol and 3 μg poly[d (I-C)]. After aliquots were equilibrated on ice for 5 minutes, binding reactions were stared by addition of 20-60,000 counts/min (20 fM) of ^32P-labeled DNA probes and allowed to proceed for 25-30 minutes at room temperature or up to 1 hour on ice. The oligonucleotide probe
containing the κB binding motif (underlined) was annealed to the complementary oligonucleotide with a 5′-G overhang and end-labeled using Klenow DNA polymerase I. The samples were electrophoresed at room temperature in 0.5×TBE buffer (1×TBE 89 mM Tris base, 89 mM boric acid and 2 mM EDTA) on nondenaturing 4.5% polyacrylamide gel at 200 V. Gels were dried and directly analyzed in the PhosphorImager (Molecular Dynamics, Sunnyvale, Calif.). The experiment was repeated twice.
To study the effects of combinations of DPI and polyphenolic compounds on serum-induced activation of NF-κB and protection from apoptosis, the following assay was conducted. Mia PACA-2 cells were cultured for 72 hours in the presence of serum with or without 100 μM trans-resveratrol, 15 μM DPI, a combination of trans-resveratrol, 100 μM genistein, or a combination of genistein and DPI. NF-κB binding activity was measured in nuclear extracts by gel shift assay as described above.
To determine the effects of LY29400 and DPI on NF-κB activation, Mia PACA-2 cells were cultured for 72 hours in the presence of serum and 15 μM DPI with or without 50 μM LY294002. NF-κB DNA binding activity was measured in nuclear extracts by gel shift assay as described above.

[5] = test system: PARP; assay: PARP proteolysis (Western blot); format: cell-based, rat; settings: BSp73AS, 6 hours, 50 μM inhibitor
Procedure: (§1) BSp73AS cells were cultured for 6 hours and Mia PACA-2 cells were cultured for 24 hours in the presence or absence of 100 μM of each rutin, quercetin or trans-resveratrol and with or without 50 μM of each […]. The cells were washed twice with PBS and lysed by incubating for 20 minutes at 4° C. in lysis buffer comprising 0.15 M NaCl, 50 mM Tris (pH 7.2), 1% deoxycholic acid (wt/vol), 1% Triton X-100 (wt/vol), 0.1% […] (wt/vol) and 1 mM PMSF, as well as 5 μg/ml each of protease inhibitors, pepstatin, leupeptin, chymostatin, antipain, and aprotinin. Then the cell lysates were centrifuged for 20 minutes at 15,000 g at 4° C. The supernatants were separated by 4-20% SDS-PAGE for 2 hours at 120 V using precast Tris-glycine gels and a Mini-Cell gel apparatus (Novex, San Diego, Calif.). Separated proteins were electrophoretically transferred to a nitrocellulose membrane for 2 hours at 30 V using a Novex Blot Module (Novex, San Diego, Calif.). Nonspecific binding was blocked by 1 hour incubation of nitrocellulose membranes in 5% (wt/vol) nonfat dry milk in Tris-buffered saline (TBS; pH 7.5). Blots were then incubated overnight at 4° C. with rabbit polyclonal antibody against poly (ADP-ribose) polymerase (PARP) (Santa Cruz Biotechnology, Santa Cruz, Calif.) (1;3,000) in an antibody buffer comprising (1% (wt/vol) non-fat dry milk in TTBS (0.05% vol/vol) Tween-20 in TBS), washed 3 times with TTBS and finally incubated for 1 hour with a peroxidase-labeled secondary antibody in the antibody buffer. Blots were developed for visualization using ECL detection kit. To test for equal protein loading, the blots were stripped and re-probed with an antibody against tubulin. When processing of a protein was measured, a decrease in unprocessed full-length form was measured concomitantly with the increase in the cleaved, active form. The experiment was repeated 3 times with similar results.

[6] = test system: PARP; assay: PARP proteolysis (Western blot); format: cell-based, human; settings: Mia PACA-2, 24 hours, 50 μM inhibitor
Procedure: as §1

[7] = test system: caspase-3; assay: Caspase-3 (DEVDase) activity, fluorogenic assay with DEVD-AMC; format: cell-based, human; settings: Mia PACA-2, 24 hours; Z-VAD FMK 50 μM (FIG. 12B)
Procedure: To determine whether a polyphenolic compound activates caspase-3 activity in a time-dependent manner, the following assay was conducted. BSp73AS cells were cultured for 0, 1, 3, and 6 hours and Mia PACA-2 cells were cultured in the absence of serum or growth factors for 0, 1, 4, 6, and 24 hours in the presence of 100 μM or quercetin, trans-resveratrol, rutin, or control. Caspase-3 activity was measured in cell lysates with a fluorogenic assay using DEVD-AMC as a substrate. The results were normalized to the DEVDase activity in untreated cells.
A fluorimetric assay for caspase-3 activity was conducted. […] Cytosolic protein extracts (supernatants) were collected, protein concentrations were determined and the extracts were aliquoted and stored at −80° C. […] The reaction was started by addition of caspase-3 substrate, the readings were taken at 0, 60, 90, and 120 minutes. Fluorescence was calibrated using a standard curve for AMC. The data were expressed as mol AMC/mg protein/min.
Mia PACA-2 cells were cultured in the absence of serum or growth factors for 24 hours in the presence or absence of quercetin (100 μM), trans-resveratrol (100 μM), Z-VAD FMK (50 μM), cyclosporin A (5 μM) and/or aristolochic acid (50 μM). […] The reaction was started by addition of caspase-3 substrate, the readings were taken at 0, 60, 90, and 120 minutes. Fluorescence was calibrated using a standard curve for AMC. […] The data were expressed as mol AMC/mg protein/min. […]

[8] = test system: cytochrome c; assay: Mitochondrial cytochrome c release (Western blot); format: cell-based, human; settings: Mia PACA-2, 24 hours, Z-VAD FMK 50 μM
Procedure: In order to determine the effects polyphenolic compounds have on mitochondrial cytochrome c release and apoptosis, the following assay was conducted. BSp73AS cells were cultured for 6 hours and Mia PACA-2 cells were cultured in the absence of serum or growth factors for 24 hours in the absence or presence of 100 μM of each rutin, trans-resveratrol, genistein, or quercetin. Cells were washed twice with ice-cold PBS, pH 7.2 and resuspended in extraction buffer, about 500 μl, comprising 20 mM HEPES-KOH (pH 7.0), 10 mM KCl, 1 mM NaEGTA, 2 mM MgCl2, 1 mM EDTA, 1 mM DTT, 250 mM sucrose, 1 mM PMSF and protease inhibitors cocktail as provided above. The lysate was incubated for 30 minutes on ice and then homogenized using a glass dounce (80 strokes). Nuclei were removed by centrifugation at 1,000 g for 10 minutes at 4° C. Supernatant was additionally centrifuged for 1 hour at 100,000 g and the resulting supernatant (cytosolic fraction) and pellet (mitochondrial fraction) were collected separately, subjected to SDS-PAGE, and Western blotting using an antibody against cytochrome c. The experiment was repeated twice with similar results.
In order to determine the role of the cancer cell's PTP in the effects of the polyphenolic compounds on mitochondrial function, caspase-3 activation and apoptosis, we performed the following experiments. Mia PACA-2 cells were cultured in the absence of serum or growth factors for 24 hours in the presence or absence of quercetin (100 μM), trans-resveratrol (100 μM), Z-VAD FMK (50 μM), cyclosporin A (5 μM) and/or aristolochic acid (50 μM). Cells were collected, washed with ice-cold PBS and resuspended in lysis buffer comprising 0.5% Nonidet P-40 or manufactured by the name IGEPAL CA-630, 0.5 mM EDTA, 150 mM NaCl and 50 mM Tris at pH 7.5. Cell lysates were placed for 30 minutes on a rotator at 4° C. and then centrifuged for 15 minutes at 15,000 g. Cytosolic protein extracts (supernatants) were collected, protein concentrations were determined and the extracts were aliquoted and stored at −80° C. Cytosolic extracts were subjected to SDS-PAGE and Western blot was performed with an antibody against cytochrome c. Blots were then stripped and re-probed with an antibody against tubulin to confirm equal protein loading. The experiment was repeated twice with similar results.
In order to determine the effect of a combination of trans-resveratrol and quercetin on cytochrome c release and caspase-3 activity, the following was conducted. Mia PACA-2 cells were cultured in the absence of serum or growth factors for 24 hours in the presence or absence of trans-resveratrol (25 μM), quercetin (25 μM), or the combination of trans-resveratrol (25 μM) and quercetin (25 μM). Cytosolic extracts were prepared and subject to SDS-PAGE followed by protein transfer. Immunoblot was performed with an antibody against tubulin to confirm equal protein loading.

c1ccc2c(c1)[I+]c1ccccc1-2 [DPI, diphenylene iodonium, reference compound]
increase in ROS production caused by trans-resveratrol and genistein, effect of DPI [1]: prevented | oligonucleosomal DNA fragmentation (apoptosis) ([2]; DPI 15 μM, Tiron 10 mM, genistein 100 μM, trans-resveratrol 100 or 50 μM): either no or small effects | mitochondrial membrane potential [3]: markedly depolarized the mitochondrial membrane | NF-κB activation caused by serum [4]: not inhibited

O=S(=O)(O)c1cc(O)c(O)c(S(=O)(=O)O)c1 [Tiron, reference compound]
mitochondrial membrane potential [3]: markedly depolarized the mitochondrial membrane

COC(=O)C[C@H](NC(=O)[C@H](C)NC(=O)[C@@H](NC(=O)OCc1ccccc1)C(C)C)C(=O)CF [Z-VAD, reference compound] (Cbz-Val-Ala-Asp(OMe)-CH2F)
PARP cleavage by quercetin and trans-resveratrol in the presence of caspase inhibitor [5]: cleavage did not occur | PARP cleavage by quercetin and trans-resveratrol in the presence of caspase inhibitor [6]: cleavage did not occur | apoptosis (DNA fragmentation) caused by combinations of ROS inhibitor and polyphenolic compound, effect of Z-VAD ([2]; Z-VAD 100 μM): inhibits apoptosis caused by the combinations | caspase activity in cells treated with polyphenolic compounds, effect of Z-VAD [7]: blocked caspase activity | release of cytochrome c into the cytoplasm in control (untreated) cells ([8]; no serum): inhibited the release of cytochrome c | cytosolic cytochrome c release caused by quercetin or trans-resveratrol ([8]; polyphenol 100 μM): had no effect
